Reference: patent US20240270759A1, “Preparation of SHP2 phosphatase inhibitors and its applications” (Ya Therapeutics Inc, priority 2021, published 2024)

Molecular target: T1, SHP2 full-length protein (Homo sapiens, UniProt Q06124)
T1 construct: purchased BPS Bioscience #79330
T1 sequence (Q06124 1-593): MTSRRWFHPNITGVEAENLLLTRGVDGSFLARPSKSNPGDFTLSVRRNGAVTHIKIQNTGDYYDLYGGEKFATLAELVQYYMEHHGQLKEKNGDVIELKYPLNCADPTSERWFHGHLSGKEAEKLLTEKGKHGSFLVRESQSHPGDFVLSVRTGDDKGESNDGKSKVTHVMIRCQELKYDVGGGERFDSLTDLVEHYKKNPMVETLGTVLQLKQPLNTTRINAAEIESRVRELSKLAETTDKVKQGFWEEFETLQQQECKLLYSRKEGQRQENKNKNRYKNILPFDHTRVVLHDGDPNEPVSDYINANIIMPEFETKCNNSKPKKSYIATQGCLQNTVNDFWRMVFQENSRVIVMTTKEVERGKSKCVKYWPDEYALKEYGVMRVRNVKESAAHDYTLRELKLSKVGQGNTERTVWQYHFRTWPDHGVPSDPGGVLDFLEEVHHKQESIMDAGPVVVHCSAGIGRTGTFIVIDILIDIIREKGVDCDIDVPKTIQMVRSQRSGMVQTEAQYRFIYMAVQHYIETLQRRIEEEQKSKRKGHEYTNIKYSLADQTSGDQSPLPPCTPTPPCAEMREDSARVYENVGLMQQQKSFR
Test: SHP2 allosteric inhibition experiment (Homogeneous Full Length SHP-2 Assay Kit)
Format: biochemical
Conditions: full-length SHP2 0.06 nM with SHP-2 activating peptide; ten-point, 1 μM to 0.05 nM; read-out: IC50 Values of Compounds Inhibiting SHP2
Description: The following further describes and explains the present invention in combination with test examples, but these examples are not meant to limit the scope of the present invention. SHP2 allosteric inhibition experiment
The purpose of this test is to measure the ability of the compounds to inhibit the allosteric activity of the SHP2 full-length protein. Experimental equipment: a centrifuge (5810R) is purchased from Eppendorf Company; pipettes are purchased from Eppendorf Company and Rainin Company, and microplate readers are purchased from BioTek Company of the United States, SynergyH1 multimode microplate reader.
Experimental method: Homogeneous Full Length SHP-2 Assay Kit (BPS Bioscience, #79330) is used to detect SHP2 activity in vitro. First, add 18 μL of Master Mix to 96-well low-adsorption microplate (NUNC, #267342), that is, 0.5 μL of SHP-2 activating Peptide and 5 mM DTT are included in the reaction buffer with a final concentration of 1×. After centrifugation, add 5 μL of the compound to be tested in DMSO (final DMSO content is 1% (V/V) in each well: dissolve the compound to be tested in DMSO to 1 mM, conduct triple dilution with a total of 10 concentration levels ranging from 1 μM to 0.05 nM in the reaction buffer. After diluting SHP2 in 1× reaction buffer to a final concentration of 0.06 nM, add it to the reaction microwell plate, 2 μL per well. Set a full activity control ([…]) and a full inhibition control (without SHP-2) on the reaction plate, and incubate the reaction mixture at room temperature for 60 minutes after centrifugation.
After incubation, add 25 μL of Substrate solution to each well, containing Substrate with a final concentration of 10 μM and DTT with a final concentration of 5 mM, and after centrifugation, continue to incubate at room temperature for 30 minutes. After the reaction, set the excitation wavelength at 340 nm, the emission wavelength at 455 nm, and the gain value to 75 on the Synergy H1 microplate reader (Biotek) for reading.
Take the full activity control and full inhibition control as the values of Max and Min, and calculate the percentage inhibition rate of the wells treated with the compound based on the positive control wells (DMSO control wells) and negative control wells (no kinase added) on the reaction plate, (inhibition rate percentage=100−[(test compound−Min average value)/(Max average value−Min average value)]×100%. IC50 values of test compounds are calculated by fitting percentage of inhibition and ten-point concentration data to a 4-parameter nonlinear logic formula using GraphPad prism.

Compound	IC50 [nM]
C[C@@H]1OCC2(CCN(c3cnc4nc(Sc5cccc(-c6ccn(C)n6)c5Cl)ncc4n3)CC2)[C@@H]1N [Compound 63, (3S,4S)-8-(2-((2-chloro-3-(1-methyl-1H-pyrazole-3-yl)phenyl)mercapto)pteridine-6-y 1)-3-methyl-2-oxa-8-azaspiro[4.5]decane-4-amine]	≤ 10
C[C@@H]1OCC2(CCN(c3ncc4nc(Sc5cccc(-c6ccn(C)n6)c5Cl)cnc4n3)CC2)[C@@H]1N [Compound 64, (3S,4S)-8-(6-((2-chloro-3-(1-methyl-1H-pyrazole-3-yl)phenyl)mercapto)pteridine-2-y 1)-3-methyl-2-oxa-8-azaspiro[4.5]decane-4-amine]	≤ 10
C[C@@H]1OCC2(CCN(c3ccc4nc(Sc5cccc(-c6ccn(C)n6)c5Cl)ncc4n3)CC2)[C@@H]1N [Compound 65, (3S,4S)-8-(2-((2-chloro-3-(1-methyl-1H-pyrazole-3-yl)phenyl)mercapto)pyridinyl[3,2-d]pyrimidine-6-yl)-3-methyl-2-oxa-8-azaspiro[4.5]decane-4-amine]	≤ 10
CCn1ccc(-c2cccc(Sc3ncc4nc(N5CCC6(CC5)CO[C@@H](C)[C@H]6N)cnc4n3)c2Cl)n1 [Compound 66, (3S,4S)-8-(2-((2-chloro-3-(1-ethyl-1H-pyrazole-3-yl)phenyl)mercapto)pteridine-6-yl)-3-methylyl-2-oxa-8-azaspiro[4.5]decane-4-amine]	≤ 10
CCn1ccc(-c2cccc(Sc3cnc4nc(N5CCC6(CC5)CO[C@@H](C)[C@H]6N)ncc4n3)c2Cl)n1 [Compound 67, (3S,4S)-8-(6-((2-chloro-3-(1-ethyl-1H-pyrazole-3-yl)phenyl)mercapto)pteridine-2-yl)-3-methylyl-2-oxa-8-azaspiro[4.5]decane-4-amine]	≤ 10
CCn1ccc(-c2cccc(Sc3ncc4nc(N5CCC6(CC5)CO[C@@H](C)[C@H]6N)ccc4n3)c2Cl)n1 [Compound 68, (3S,4S)-8-(2-((2-chloro-3-(1-ethyl-1H-pyrazole-3-yl)phenyl)mercapto)pyridinyl[3,2-d]pyrimidine-6-yl)-3-methyl-2-oxa-8-azaspiro[4.5]decane-4-amine]	≤ 10
CC(C)n1ccc(-c2cccc(Sc3ncc4nc(N5CCC6(CC5)CO[C@@H](C)[C@H]6N)cnc4n3)c2Cl)n1 [Compound 69, (3S,4S)-8-(2-((2-chloro-3-(1-isopropyl-1H-pyrazole-3-yl)phenyl)mercapto)pteridine-6-yl)-3-methyl-2-oxa-8-azaspiro[4.5]decane-4-amine]	≤ 10
CC(C)n1ccc(-c2cccc(Sc3cnc4nc(N5CCC6(CC5)CO[C@@H](C)[C@H]6N)ncc4n3)c2Cl)n1 [Compound 70, (3S,4S)-8-(6-((2-chloro-3-(1-isopropyl-1H-pyrazole-3-yl)phenyl)mercapto)pteridine-2-yl)-3-methyl-2-oxa-8-azaspiro[4.5]decane-4-amine]	≤ 10
CC(C)n1ccc(-c2cccc(Sc3ncc4nc(N5CCC6(CC5)CO[C@@H](C)[C@H]6N)ccc4n3)c2Cl)n1 [Compound 71, (3S,4S)-8-(2-((2-chloro-3-(1-isopropyl-1H-pyrazole-3-yl)phenyl)mercapto)pyridinyl[3,2-d]pyrimidine-6-yl)-3-methyl-2-oxa-8-azaspiro[4.5]decane-4-amine]	≤ 10
C[C@@H]1OCC2(CCN(c3cnc4nc(Sc5cccc(-c6cnccn6)c5Cl)ncc4n3)CC2)[C@@H]1N [Compound 72, (3S,4S)-8-(2-((2-chloro-3-(pyrazine-2-yl)phenyl)mercapto)pteridine-6-yl)-3-methyl-2-oxa-8-azaspiro[4.5]decane-4-amine]	≤ 10
C[C@@H]1OCC2(CCN(c3ncc4nc(Sc5cccc(-c6cnccn6)c5Cl)cnc4n3)CC2)[C@@H]1N [Compound 73, (3S,4S)-8-(6-((2-chloro-3-(pyrazine-2-yl)phenyl)mercapto)pteridine-2-yl)-3-methyl-2-oxa-8-azaspiro[4.5]decane-4-amine]	≤ 10
C[C@@H]1OCC2(CCN(c3ccc4nc(Sc5cccc(-c6cnccn6)c5Cl)ncc4n3)CC2)[C@@H]1N [Compound 74, (3S,4S)-8-(2-((2-chloro-3-(pyrazine-2-yl)phenyl)mercapto)pyridinyl[3,2-d]pyrimidine-6-yl)-3-methyl-2-oxa-8-azaspiro[4.5]decane-4-amine]	≤ 10
C[C@@H]1OCC2(CCN(c3cnc4nc(Sc5cccc(-c6ccncn6)c5Cl)ncc4n3)CC2)[C@@H]1N [Compound 75, (3S,4S)-8-(2-((2-chloro-3-(pyrimidine-4-yl)phenyl)mercapto)pteridine-6-yl)-3-methyl-2-oxa-8-azaspiro[4.5]decane-4-amine]	≤ 10
C[C@@H]1OCC2(CCN(c3ncc4nc(Sc5cccc(-c6ccncn6)c5Cl)cnc4n3)CC2)[C@@H]1N [Compound 76, (3S,4S)-8-(6-((2-chloro-3-(pyrimidine-4-yl)phenyl)mercapto)pteridine-2-yl)-3-methyl-2-oxa-8-azaspiro[4.5]decane-4-amine]	≤ 10
C[C@@H]1OCC2(CCN(c3ccc4nc(Sc5cccc(-c6ccncn6)c5Cl)ncc4n3)CC2)[C@@H]1N [Compound 77, (3S,4S)-8-(2-((2-chloro-3-(pyrimidine-4-yl)phenyl)mercapto)pyridinyl[3,2-d]pyrimidine-6-yl)-3-methyl-2-oxa-8-azaspiro[4.5]decane-4-amine]	≤ 10
C[C@@H]1OCC2(CCN(c3cnc4nc(Sc5cccc(-c6cccnc6)c5Cl)ncc4n3)CC2)[C@@H]1N [Compound 78]	≤ 10
C[C@@H]1OCC2(CCN(c3ccc4nc(Sc5cccc(-c6cccnc6)c5Cl)ncc4n3)CC2)[C@@H]1N [Compound 80]	≤ 10
C[C@@H]1OCC2(CCN(c3cnc4nc(Sc5cccc(NC(=O)c6ccncn6)c5Cl)ncc4n3)CC2)[C@@H]1N [Compound 81, N-(3-((6-((3S,4S)-4-amino-3-methyl-2-oxa-8-azaspiro[4.5]decane-8-yl)pteridine-2-yl)mercapto)-2-chlorophenyl)pyrimidine-4-carboxamide]	≤ 10
C[C@@H]1OCC2(CCN(c3ncc4nc(Sc5cccc(NC(=O)c6ccncn6)c5Cl)cnc4n3)CC2)[C@@H]1N [Compound 82, N-(3-((2-((3S,4S)-4-amino-3-methyl-2-oxa-8-azaspiro[4.5]decane-8-yl)pteridine-6-yl)mercapto)-2-chlorophenyl)pyrimidine-4-carboxamide]	≤ 10
C[C@@H]1OCC2(CCN(c3ccc4nc(Sc5cccc(NC(=O)c6ccncn6)c5Cl)ncc4n3)CC2)[C@@H]1N [Compound 83, N-(3-((6-((3S,4S)-4-amino-3-methyl-2-oxa-8-azaspiro[4.5]decane-8-yl)pyridinyl[3,2-d]pyrimidine-2-yl)mercapto)-2-chlorophenyl)pyrimidine-4-carboxamide]	≤ 10
C[C@@H]1OCC2(CCN(c3cnc4nc(Sc5cccc(NC(=O)c6cnccn6)c5Cl)ncc4n3)CC2)[C@@H]1N [Compound 84, N-(3-((6-((3S,4S)-4-amino-3-methyl-2-oxa-8-azaspiro[4.5]decane-8-yl)pteridine-2-yl)mercapto)-2-chlorophenyl)pyrazine-2-carboxamide]	≤ 10
C[C@@H]1OCC2(CCN(c3ncc4nc(Sc5cccc(NC(=O)c6cnccn6)c5Cl)cnc4n3)CC2)[C@@H]1N [Compound 85, N-(3-((2-((3S,4S)-4-amino-3-methyl-2-oxa-8-azaspiro[4.5]decane-8-yl)pteridine-6-yl)mercapto)-2-chlorophenyl)pyrazine-2-carboxamide]	≤ 10
